Experimental data taken from patent US20260015339A1, “CALIX[4]ARENES WITH HIGH ANTICANCER ACTIVITY” (UNIVERSITE GRENOBLE ALPES, priority 2023, published 2026).
pIC50: −log10 of the molar value. Converted amounts (≈) assume the structure as drawn.

Experiments:
Assay type in all cases: cell-based
[1] = system: A549 human lung cancer cell line; assay: Inhibition of A549 cell proliferation (cell count); conditions: 2 μM, until 72 hours
Experimental: The inhibition of a A549 human lung cancer cell line proliferation by the calix[4]arene of the formula (2) was determined by exposure of said A549 human lung cancer cell line to a concentration of 2 μM of the calix[4]arene of the formula (2) until 72 hours. The absolute number of cells were counted in the treated and untreated conditions before treatment (N0) and after 72 hours (Nt).
The FIG. 1 is a graph showing: • the profile of the proliferation index Nt/N0 of the A549 cells after exposure with the calix[4]arene of the formula (2) with respect to the time (i.e. the curve entitled “calix[4]arene (2)”), • the profile of the proliferation index Nt/N0 of the A549 cells without any exposure with the calix[4]arene of the formula (2) with respect to the time (i.e. the curve entitled “untreated”).
“Nt” is number of cells at time “t” and “No” is number of cells before treatment.

[2] = system: methicillin resistant Staphylococcus aureus; assay: Minimal inhibitory concentration, bacterial growth in 96 well plate; conditions: MRSA, with 100 μM CuSO4
Experimental: (§1) The efficiency of a compound of interest on a bacterial strain is evaluated by measuring its minimal inhibitory concentration (hereafter abbreviated “MIC”). MICs are measured by following the bacterial growth in a 96 wells plate exposed to a range of concentrations of the compound of interest.
(§2) A small amount of the frozen bacteria (stored at −80° C. in glycerol) was mixed in 25 mL of Lysogeny broth (i.e. a nutritionally rich medium used for the growth of bacteria which comprises 10 g of tryptone, 5 g of yeast extract, 10 g of NaCl, and 1 L of distilled water; with the pH adjusted to 7.0 with 1 N NaOH; and autoclaved for 25 min at 120° C.) in a falcon tube and then placed in an incubation chamber at 180 rpm and 37° C. After 16 to 24 hours, 25 mL of Lysogeny broth was added to the growth media and placed back in the incubation chamber for two hours. The absorption of the resulting solution was measured at 600 nm (hereafter abbreviated “OD600”) using Lysogeny broth as blank and then the solution was diluted to 0.1±0.01.
(§3) 96 Well plates were filled with 20 μL of 1 mM CuSO4 solution, then 160 μL of growth media was added. Finally, 20 μL of DMSO solutions containing a range of concentrations of the tested calix[4]arene of the formula (2) was added. […] For each condition three wells were used. The top and bottom rows were used as control, the top row only contained Lysogeny broth and the bottom one contained the growth media, DMSO and CuSO4. The plates were placed in the incubator for 16 to 24 hours. The absorbance of each well was measured at 600 nm with a multiplate reader (Fluostar from Optima).
(§4) The ratio between the average absorption value of three wells (OD) with the same conditions minus the average of the 12 negative controls (OD(negative)) and the average of the 12 positive control (OD(positive)) minus the negative control yielded the growth value which was subtracted from one and multiplied by a hundred to give the inhibition percentage (Equation 1).
(§5) The MIC50 or MIC90 is defined by the lowest concentration for which the inhibition value is at/over 50 or 90%. For a given experimental conditions three rows are used in a plate. The whole process was also repeated three times to obtain triplicates. MIC values were the determined by the average values obtained.

[3] = system: Staphylococcus aureus; assay: as above; conditions: SA, with 100 μM CuSO4
Experimental: as §1, §2, §3, §4, §5

[4] = system: vancomycin resistant enterococcus; assay: as above; conditions: VRE, with 100 μM CuSO4
Experimental: as §1, §2, §3, §4, §5

[5] = system: Escherichia coli; assay: as above; conditions: E. coli, with 100 μM CuSO4
Experimental: as §1, §2, §3, §4, §5

[6] = system: Non-malignant MRC5-SVII cells; assay: MTS cytotoxicity assay on MRC5-SVII; conditions: 72 hours of treatment
Experimental: Cells were grown in Minimal Essential Medium—Non Essential Amino Acids (MEM NEAA) culture medium from Gibco™, supplemented with sodium pyruvate ([…]), and fetal calf serum (FCS, 10%) and treated with a broad range of concentrations of the 2nd comparative example of the formula (XI).

CCCOc1c2cccc1Cc1cccc(c1OCc1nccn1C)Cc1cccc(c1OCCC)Cc1cccc(c1OCc1nccn1C)C2 [(2)]
proliferation index Nt/N0 (FIG. 1) [1]: clearly inhibits the proliferation | MIC50 [2]: 0.8 µM (≈ 0.558 µg/mL) | MIC90 [2]: 0.8 µM (≈ 0.558 µg/mL) | MIC50 [3]: 0.8 µM (≈ 0.558 µg/mL) | MIC90 [3]: 1.6 µM (≈ 1.12 µg/mL) | MIC50 [4]: 0.8 µM (≈ 0.558 µg/mL) | MIC90 [4]: 1.6 µM (≈ 1.12 µg/mL) | MIC50 [5]: 0.8 µM (≈ 0.558 µg/mL) | MIC90 [5]: 1.6 µM (≈ 1.12 µg/mL) | pIC50 [6]: 5.99
